Test results from US9199963B2, “Heterocyclic compound” (Takeda Pharmaceutical Company Limited, priority 2013, dated 2015).

Tests used:
[1] = tested on: male diet-induced obese F344/Jcl rats; test: Anorectic effect using male diet-induced obese F344/Jcl rats; type: in vivo, rat; settings: oral, 5 mg/mL suspension in 0.5% methylcellulose at 2 mL/kg, two administrations; food intake for 2 days vs control group
Description: Evaluation of Anorectic Effect Using Male Diet-Induced Obese F344/Jcl Rats
Male diet-induced obese F344/Jcl rats (41-52 weeks old) fed with a high-fat diet (D12451: Research Diets) from 5 weeks old were used. From before the start of experiment, the rats were singly housed, given a powder high-fat diet (D12451M: Research Diets), and habituated to oral administration with tap water. The food intake from the evening of the day before the start of experiment to the next morning was measured, and the rats were grouped based on both the food intake and the body weight of the previous day. In the evening of the day of the start of experiment and the next day, 0.5% methylcellulose solution was orally administered to the control group, and 0.5% methylcellulose suspension of the test compound (5 mg/mL) was orally administered to the compound administration group at 2 mL/kg (6 per group for both control group and compound administration group). The food intake for 2 days from the initial administration was measured. The food intake inhibition rate of each compound administration group to the control group was calculated.

[2] = target: T1, human MCHR1 (Homo sapiens, UniProt Q99705); test: MCH receptor 1 antagonistic activity using Ca2+ mobilization assay; type: cell-based; settings: test compound 0.1 μM; ligand MCH (4-19) 2 nM; human MCHR1-expressing CHO cells (clone #4); read-out: Inhibition rate % (0.1 μM)
T1 construct: expressed in transfected cells; host or cells: CHO dhfr- cells, clone #4
Description: Measurement of MCH Receptor 1 Antagonistic Activity of Test Compound Using Ca^2+ Mobilization Assay
Using an expression vector plasmid introduced with human MCHR1 gene for expression in animal cells, human MCHR1 gene was introduced into CHO cells (CHO dhfr^−) by Lipofectamine LTX (Invitrogen). The cells were cultured in selection MEMα medium [445 mL of MEMα medium without nucleic acid and added with 5 mL of Penicillin-Streptomycin (Invitrogen) and 50 mL of dialyzed fetal bovine serum]. Colony 24 clones grown in the selection medium, which were human MCHR1 gene-expressing CHO cell candidates, were selected. […] An integrated dispensing function fluorometer (CellLux, PerkinElmer) was used for Ca^2+ mobilization assay. […] The medium was removed, and the cells were washed with phosphate buffered saline (PBS). A Ca^2+ indicator dye reagent (DOJINDO LABORATORIES, Ca screening no-wash kit Fluo4) was added at 100 μL/well, and the dye was allowed to penetrate into the cells for 30 min in an incubator at 5% CO2, 37° C. The plate was set on a plate reader. First, a test compound solution diluted with an assay buffer [10 mM HEPES (pH 7.4), 1× assay buffer containing 0.1% BSA (DOJINDO LABORATORIES, attached to Ca screening no-wash kit Fluo4)] or DMSO solution was added at 50 μL/well, and then ligand MCH (4-19) peptide (final concentration 2 nM) diluted with assay buffer or DMSO was added at 50 μL/well, during which changes in intracellular fluorescence were measured at 2 second intervals.

[3] = target: T2, human MCH receptor 1 (MCHR1) (Homo sapiens, UniProt Q99705); test: Human MCH receptor 1 (MCHR1) competitive inhibitory activity using binding assay; settings: test compound 0.1 μM; [125I]-MCH (4-19); human MCHR1-expressing CHO cellular membrane fraction; read-out: Binding inhibition rate % (0.1 μM)
T2 construct: expressed in transfected cells; host or cells: CHO cell clone 57 (described in WO01/82925); membrane fraction
Description: Determination of Human MCH Receptor 1 (MCHR1) Competitive Inhibitory Activity of Test Compound Using Binding Assay
1. Preparation of Membrane Fraction
In phosphate buffered saline (pH 7.4) supplemented with 5 mM EDTA (ethylenediaminetetraacetic acid) were respectively suspended human MCHR1-expressing CHO cells (1×10^8 cells) and centrifuged. Homogenate buffer (10 mL, 10 mM NaHCO3, 5 mM EDTA, pH 7.5, 0.5 mM PMSF (phenylmethylsulfonyl fluoride), 20 mg/L leupeptin, 4 mg/L E-64, 1 mg/L pepstatin A) was added to the pellets of the cells and, using Polytron Homogenizer, the mixture was homogenated. The supernatant obtained after centrifugation at 400×g for 10 min was further centrifuged at 100,000×g for 1 hr to give precipitate of the membrane fraction. The precipitate was suspended in 2 mL of assay buffer [20 mM Tris-HCl (pH 7.5), 5 mM EDTA, 0.5 mM PMSF, 20 mg/L leupeptin, 4 mg/L E-64, 1 mg/L pepstatin A]. The membrane fractions were suspended in assay buffer to a protein concentration of 2 mg/mL, and after dispensing, preserved at −80° C. and used upon thawing each time when in use.
The MCHR1 ligand binding inhibitory activity of the test compound was determined as follows.
The mixture was reacted with stirring at room temperature for 1 hr, and the plate was set on FilterMate Harvester (PerkinElmer). […] The glass filter plate was dried, MicroScint 0 (PerkinElmer) was added at 25 μL/well, and the resulting radioactivity was measured by TopCount liquid scintillation counter (PerkinElmer). The binding inhibition rate of the test compound was calculated by the following formula. Binding inhibition(%)=100−(radioactivity upon addition of test compound and hot MCH−radioactivity upon addition of cold MCH and hot MCH solution)/(radioactivity upon addition of DMSO solution and hot MCH−radioactivity upon addition of cold MCH and hot MCH solution)×100

[4] = target: hERG (Homo sapiens, UniProt Q12809); test: hERG activity measurement by IonWorks Quattro; type: cell-based; settings: 5 minutes exposure, hERG stably expressed in CHO cells (CYL3038)
hERG, sequence (Q12809 whole entry): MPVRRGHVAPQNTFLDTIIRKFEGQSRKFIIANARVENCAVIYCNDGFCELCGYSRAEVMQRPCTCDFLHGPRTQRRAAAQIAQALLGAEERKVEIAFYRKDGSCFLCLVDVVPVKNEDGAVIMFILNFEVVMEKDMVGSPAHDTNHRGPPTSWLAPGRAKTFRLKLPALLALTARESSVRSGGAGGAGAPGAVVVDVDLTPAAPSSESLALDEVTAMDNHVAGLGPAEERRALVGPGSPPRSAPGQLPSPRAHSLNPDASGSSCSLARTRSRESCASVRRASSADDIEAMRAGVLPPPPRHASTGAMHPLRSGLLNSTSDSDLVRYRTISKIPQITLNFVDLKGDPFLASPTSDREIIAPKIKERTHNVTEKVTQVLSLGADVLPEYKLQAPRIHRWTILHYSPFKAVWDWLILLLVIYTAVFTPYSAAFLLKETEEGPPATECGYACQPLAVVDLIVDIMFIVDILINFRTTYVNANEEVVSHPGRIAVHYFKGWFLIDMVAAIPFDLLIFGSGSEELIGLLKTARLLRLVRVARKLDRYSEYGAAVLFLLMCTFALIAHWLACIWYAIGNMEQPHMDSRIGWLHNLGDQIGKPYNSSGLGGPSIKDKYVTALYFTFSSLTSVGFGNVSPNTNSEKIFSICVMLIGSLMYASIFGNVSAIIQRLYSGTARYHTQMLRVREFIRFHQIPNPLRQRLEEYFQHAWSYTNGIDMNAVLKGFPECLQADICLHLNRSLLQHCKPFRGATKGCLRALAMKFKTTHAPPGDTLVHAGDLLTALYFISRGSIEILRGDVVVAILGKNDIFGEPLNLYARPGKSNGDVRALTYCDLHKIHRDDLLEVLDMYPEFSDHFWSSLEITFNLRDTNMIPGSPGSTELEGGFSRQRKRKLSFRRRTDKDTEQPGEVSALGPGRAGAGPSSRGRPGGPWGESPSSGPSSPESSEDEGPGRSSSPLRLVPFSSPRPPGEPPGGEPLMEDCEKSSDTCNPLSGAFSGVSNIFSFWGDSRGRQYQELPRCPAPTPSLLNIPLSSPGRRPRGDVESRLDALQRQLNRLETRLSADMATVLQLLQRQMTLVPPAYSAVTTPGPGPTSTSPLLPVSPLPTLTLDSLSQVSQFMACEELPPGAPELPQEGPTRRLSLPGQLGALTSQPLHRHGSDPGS

T2 sequence (Q99705 whole entry): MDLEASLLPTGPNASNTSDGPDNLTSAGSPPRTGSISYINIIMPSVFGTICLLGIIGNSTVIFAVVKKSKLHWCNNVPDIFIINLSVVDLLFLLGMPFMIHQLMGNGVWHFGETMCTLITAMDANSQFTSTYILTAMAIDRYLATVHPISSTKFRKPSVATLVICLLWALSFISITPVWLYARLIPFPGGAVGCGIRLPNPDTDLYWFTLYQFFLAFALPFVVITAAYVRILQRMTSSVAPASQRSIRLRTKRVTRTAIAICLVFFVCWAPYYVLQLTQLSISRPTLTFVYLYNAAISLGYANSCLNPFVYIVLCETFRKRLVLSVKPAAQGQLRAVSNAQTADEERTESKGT
T1 sequence (Q99705 whole entry): as above

Structure (SMILES)	inhibition at 0.1 µM [2]	inhibition at 0.1 µM [3]	Food intake suppression rate (%) [1]	% hERG inhibition (10 μM) [4]
Cc1c2cc(-n3ccc(OCc4ccc(Cl)cc4)cc3=O)ccc2nn1C [Example 1, 4-[(4-chlorobenzyl)oxy]-1-(2,3-dimethyl-2H-indazol-5-yl)pyridin-2(1H)-one]	83%	72%	32.1%	22.1%
Cc1c2cc(-n3ccc(OCc4ccc(F)cc4)cc3=O)ccc2nn1C1CC1 [Example 6, 1-(2-cyclopropyl-3-methyl-2H-indazol-5-yl)-4-[(4-fluorobenzyl)oxy]pyridin-2(1H)-one]	70%	72%	26.4%	–
Cc1c2cc(-n3ccc(OCc4csc(C(F)(F)F)c4)cc3=O)ccc2nn1C1CC1 [Example 44, 1-(2-cyclopropyl-3-methyl-2H-indazol-5-yl)-4-{[5-(trifluoromethyl)thiophen-3-yl]methoxy}pyridin-2(1H)-one]	55%	77%	30.6%	–

More lines, main results first:

inhibition at 0.1 µM [2]	inhibition at 0.1 µM [3]	Structure (SMILES)	Food intake suppression rate (%) [1]	% hERG inhibition (10 μM) [4]
69%	51%	Cc1c2cc(-n3ccc(OCc4csc(C(F)(F)F)c4)cc3=O)ccc2nn1C [Example 22, 1-(2,3-dimethyl-2H-indazol-5-yl)-4-{[5-(trifluoromethyl)thiophen-3-yl]methoxy}pyridin-2(1H)-one]	50.7%	–
84%	57%	Cc1c2cc(-n3ccc(OCc4ccc(Br)cc4)cc3=O)ccc2nn1C [Example 25, 4-[(4-bromobenzyl)oxy]-1-(2,3-dimethyl-2H-indazol-5-yl)pyridin-2(1H)-one]	59.8%	–
78%	50%	Cc1c2cc(-n3ccc(OCc4csc(C(F)(F)F)n4)cc3=O)ccc2nn1C1CC1 [Example 46, 1-(2-cyclopropyl-3-methyl-2H-indazol-5-yl)-4-{[2-(trifluoromethyl)-1,3-thiazol-4-yl]methoxy}pyridin-2(1H)-one]	13.3%	–
